According to PubChem BioAssay (NCI):
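Exposure lasted 48 hours, with cells grown in 96-well plates and compounds tested at five concentrations. TGI marks complete inhibition of growth.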

Experiments:
Experiment in all cases: NCI-60 cell line screen, 48 h
[1] = tested on: 786-0 renal
[2] = tested on: ACHN renal
[3] = tested on: CAKI-1 renal
[4] = tested on: HCT-15 colon
[5] = tested on: HL-60(TB) leukemia
[6] = tested on: HS 578T breast
[7] = tested on: OVCAR-5 ovarian
[8] = tested on: PC-3 prostate
[9] = tested on: SNB-19 CNS
[10] = tested on: SW-620 colon
[11] = tested on: T-47D breast
[12] = tested on: UO-31 renal

Row | SMILES | TGI [1] | TGI [2] | TGI [3] | TGI [4] | TGI [5] | TGI [6] | TGI [7] | TGI [8] | TGI [9] | TGI [10] | TGI [11] | TGI [12]
1 | [N-]=[N+]=Nc1c(C=O)c(=O)n(-c2ccccc2)c2ccccc12 | 35 µM | 40.7 µM | 27.7 µM | 46.4 µM | > 100 µM | 79.1 µM | > 100 µM | 43.8 µM | > 100 µM | 7.53 µM | 61.4 µM | 31.9 µM
2 | O=C(N/N=C/c1ccc([N+](=O)[O-])o1)c1ccc(C(=O)N/N=C/c2ccc([N+](=O)[O-])o2)cc1 | > 100 µM | > 100 µM | > 100 µM | > 100 µM | 44.4 µM | > 100 µM | > 100 µM | > 100 µM | > 100 µM | > 100 µM | > 100 µM | > 100 µM
3 | CCOC(=O)c1sc(N/N=C2\NC(=O)/C(=C/c3ccc([N+](=O)[O-])cc3)S2)nc1C | 33.7 µM | 58.3 µM | 60.5 µM | 48.5 µM | 51.8 µM | > 100 µM | > 100 µM | 91.4 µM | > 100 µM | > 100 µM | 45.4 µM | 47 µM
4 | COC(=O)C1c2c(c3ccccc3n2C(=O)OC)CCN2CCC1C(S(=O)(=O)c1ccccc1)C2=O (stereo not given) | > 100 µM |  | > 100 µM | > 100 µM | > 100 µM | > 100 µM | > 100 µM | > 100 µM | > 100 µM | > 100 µM | > 100 µM | > 100 µM
5 | Cc1ccc(S(=O)(=O)N2C[C@](O)(c3ccccc3)[C@H]2C)cc1 | > 100 µM | > 100 µM | > 100 µM | > 100 µM | > 100 µM | > 100 µM | > 100 µM | > 100 µM | > 100 µM | > 100 µM | > 100 µM | > 100 µM
6 | O=C(O)Cc1ccc(Oc2nc3ccccc3nc2C(=O)O)cc1 | > 100 µM | > 100 µM | > 100 µM | > 100 µM | > 100 µM | > 100 µM | > 100 µM | > 100 µM | > 100 µM | > 100 µM | > 100 µM | > 100 µM
7 | Cn1c(-c2cccs2)cc(-c2cccs2)c1-c1ccco1 | > 100 µM | > 100 µM | > 38.1 µM | > 100 µM | > 75.7 µM | > 91.7 µM | > 100 µM | > 100 µM | > 100 µM | > 100 µM | 12 µM | > 100 µM
8 | Brc1c(C#CCC(c2ccccc2)(c2ccccc2)c2ccccc2)ccc(C#CCC(c2ccccc2)(c2ccccc2)c2ccccc2)c1Br | > 100 µM | > 100 µM | > 100 µM | > 100 µM | > 100 µM | > 100 µM | > 100 µM | > 100 µM | > 100 µM | > 100 µM | > 100 µM | > 100 µM
9 | c1ccc(P(CCP(c2ccccn2)c2ccccn2)c2ccccc2)cc1 | > 100 µM | > 100 µM | > 100 µM | > 100 µM | 78.2 µM | > 100 µM | > 100 µM | 72.6 µM | > 100 µM | > 100 µM | > 100 µM | > 100 µM
10 | CN(C)CC1COC2Cc3ccccc3C1O2 (stereo not given) | > 100 µM | > 100 µM | > 100 µM | > 100 µM | > 100 µM | > 100 µM | > 100 µM | > 100 µM | > 100 µM |  | > 100 µM | > 100 µM
11 | OC[C@]1(n2nc3ccccc3n2)OC[C@@H]1c1ccccc1 | > 100 µM | > 100 µM | > 100 µM | > 100 µM | 93.9 µM | > 100 µM | > 100 µM | > 100 µM | > 100 µM |  | > 100 µM | > 100 µM
12 | CC(C)OP(=O)(OC(C)C)/C(C#N)=C/c1ccco1 | > 100 µM | > 100 µM | > 100 µM | > 100 µM | > 100 µM | > 100 µM | > 100 µM | > 100 µM | > 100 µM | > 100 µM | > 100 µM | 9.38 µM
13 | Cc1nn(C(=O)c2ccncc2)c2c1C(c1ccccc1)SC(N)=N2 (stereo not given) | > 10 µM | > 10 µM | > 10 µM | > 10 µM | > 10 µM | > 10 µM | > 10 µM | > 10 µM | > 10 µM | > 10 µM | > 10 µM | 
14 | Cc1ccc2c(n1)C(=O)C=CC2=O | 11.4 µM | 8.63 µM | 4.54 µM | 26.3 µM | > 22.5 µM | > 78.5 µM | 34.4 µM | 31.9 µM | 34 µM | 8.76 µM | 4.74 µM | 10.4 µM
15 | Cc1nc2c(nc1C)-c1c(c3c(n1C)C(=O)CCC3)C(=O)C2=O | 3.23 µM | 1.66 µM | 0.286 µM | 1.36 µM | 0.508 µM | 9.62 µM | 2.72 µM | 3.14 µM | 2.82 µM | 0.534 µM | 0.0932 µM | 1.29 µM
16 | COc1ccc2c(c1)/C(=C\c1c(C)nc3sc(C)cn13)C(=O)N2 | 72.7 µM | > 100 µM | > 100 µM | 74.6 µM | 3.63 µM | 10.3 µM | 74.4 µM | > 100 µM | > 100 µM | > 100 µM | > 100 µM | > 100 µM
17 | Cc1cc(S(=O)(=O)/N=C(\[N-]S(=O)(=O)c2ccc(Cl)cc2)[n+]2ccc(N(C)C)cc2)c(S)cc1Cl | > 100 µM | > 100 µM | > 100 µM | > 100 µM | > 100 µM | > 100 µM | > 100 µM | > 100 µM |  | > 100 µM | > 100 µM | > 100 µM
18 | COc1cc(C=C2C(C)=NN(c3cccc(Cl)c3)C23C(Cl)C(=O)N3c2nc3ccccc3s2)ccc1O (stereo not given) | 43.7 µM | 39.1 µM | 71.5 µM | 52.2 µM | 36 µM | 43 µM | 50.9 µM | 30.4 µM |  | 26 µM | > 100 µM | 55 µM
